# Square brackets hold non-standard residues; d marks the D form. Peptide text beside a SMILES is read from it.
# Legend:
# small α-syn PFF seeds = assay: AFM analysis of small α-syn PFF seeds; assay type: biochemical; conditions: 400 and 1600 nM SVD-1a, 3 days at 37 °C, PBS pH 7.4
# Protocol: Fig. 4 SVD-1a disassembles small α-syn PFF seeds into α-syn monomers. Small α-syn PFF seeds were prepared as described previously. […] A and B Time-dependent DLS measurements with 200 nM small α-syn PFF seeds in the absence (A) and presence (B) of 500 nM SVD-1a. 1 ml sample was continuously measured in a sealed quartz cuvette at 37 °C under quiescent conditions every 60 s for 72 h in a SpectroSize 300 instrument (XtalConcepts, GE). Data are shown as a radius plot where the signal amplitude of each particle size is represented by the data point diameter. C One-phase exponential decay fit of “200 nM PFF + 500 nM SVD-1a” shown in (B). […] PFF and monomer samples that were incubated without SVD-1a served as controls. α-Syn was detected with the antibody Syn211. […] In the upper part of the blot, above the marker range, PFFs were detected, using a longer exposure time due to a weaker signal (see Supplementary Fig. 11 for the whole blot image with different exposure times). F Size-based fractionation by centrifugal concentration followed by ELISA quantification. […] After incubation, the samples were fractioned using a 100 kDa MWCO centrifugal concentrator (Merck, Microcon DNA Fast Flow 100 MWCO). α-Syn content of flow through (red) and retentate (blue) was quantified using an α-syn specific ELISA (BioLegend, Human α-Synuclein (Colorimetric), 448607). […]
# α-syn monomer = assay: AFM of de novo aggregation endpoint samples; assay type: biochemical; conditions: 10 µM α-syn + 20 µM SVD-1a
# Protocol: Fig. 7 De novo aggregation analysis of α-syn in the presence and absence of SVD-1a. A De novo ThT assay of 10 µM α-syn with and without 20 µM SVD-1a. ThT fluorescence progression was measured in a 96-well non-binding half-area plate (Corning, USA) with a FLUOStar plate reader (BMG labtech, GE) at λex = 448 nm and λem = 482 nm with 300 rpm continuous orbital shaking between reads. For induction of aggregation, one borosilicate bead per well was added (d = 3 mm, Hilgenberg, GE). Data are shown as mean values with ±SD (n = 5). B CD secondary structure analysis of de novo aggregation samples. Samples were incubated as described in (A) without added ThT (n = 3) and subsequently pooled for CD analysis. Far-UV ellipticity of the samples was measured in a quartz cuvette (l = 10 mm) in a J-1100 CD-spectrometer (Jasco, GE). In addition to (A), a sample with 20 µM SVD-1a alone was incubated under identical conditions and later used as a reference for the sample with α-syn and SVD-1a. For this sample (α-syn + SVD-1a (after incubation)), the SVD-1a reference subtracted CD spectrum is shown. […] D α-Syn in the flow through (MWCO < 100 kDa) was quantified using an α-syn specific ELISA (BioLegend, Human α-Synuclein (Colorimetric), 448607, n = 3). E Retentate and flow-through samples were analyzed using SDS–PAGE with silver staining. […]
smiles,measurement,setting,value
CC[C@@H](C)[C@@H](NC(=O)[C@@H](Cc1c[nH]cn1)NC(=O)[C@@H](CCC(=O)O)NC(=O)[C@@H](CCC(N)=O)NC(=O)[C@@H](Cc1c[nH]c2ccccc12)NC(=O)[C@@H](Cc1ccc(O)cc1)NC(=O)[C@H](NC(=O)[C@@H](CCC(=O)O)NC(=O)[C@@H](Cc1c[nH]cn1)NC(=O)[C@H](NC(=O)[C@H]1CCCN1C(=O)[C@@H](CC(C)C)NC(=O)[C@H](N)CCCNC(=N)N)[C@H](C)O)[C@H](C)O)C(=O)N[C@H](Cc1c[nH]c2ccccc12)C(=O)N[C@H](Cc1c[nH]cn1)C(=O)N[C@H](C)C(=O)N[C@H](CCCNC(=N)N)C(=O)N[C@H](CCCNC(=N)N)C(=O)N[C@H](CCCNC(=N)N)C(=O)N[C@H](CCCNC(=N)N)C(=O)N[C@H](CCCNC(=N)N)C(N)=O [SVD-1a] (H-[dR][dL][dP][dT][dH][dE][dT][dY][dW][dQ][dE][dH][dI][dW][dH][dA][dR][dR][dR][dR][dR]-NH2),small α-syn PFF particle number,small α-syn PFF seeds,decrease in small α-syn PFF particle number
same,fibrils in endpoint samples (AFM),α-syn monomer,clearly do not contain any fibrils

# — PMC12454639, “Direct disassembly of α-syn preformed fibrils into α-syn monomers by an all-D-peptide” (NPJ Parkinson's Disease, 2025)
